Test results taken from ChEMBL document CHEMBL3045686, “Insecticidal Activity of N-Acyl-N-(4-aryloxybenzyl)pyrazole-5-carboxamides” (2003).

Test system: Spodoptera litura
Test: Insecticidal activity Spodoptera litura third-instar larvae fed on compound pre-treated cabbage leaf disks assessed as insect mortality at 3.1 ppm measured 5 days after compound treatment
Format: functional
Settings: foliar

Row | SMILES | mortality at 3.1 ppm [%]
1 | CCc1cc(C(=O)N(Cc2ccc(Oc3ccc(C#N)cc3)cc2)C(C)=O)n(C)n1 | > 80
2 | CCc1cc(C(=O)N(Cc2ccc(Oc3ccc(SC)cc3)cc2)C(C)=O)n(C)n1 | > 80
3 | CCc1cc(C(=O)N(Cc2ccc(Oc3ccc(C#N)cc3)cc2)C(=O)C(C)C)n(C)n1 | > 80

Test system: Spodoptera litura
Test: Insecticidal activity Spodoptera litura third-instar larvae fed on compound pre-treated cabbage leaf disks assessed as insect mortality at 13 ppm measured 5 days after compound treatment
Format: functional
Settings: foliar

Row | SMILES | mortality at 13 ppm [%]
4 | CC(=O)N(Cc1ccc(Oc2ccc(C#N)cc2)cc1)C(=O)c1cc(C2CC2)nn1C | > 80
5 | CCc1cc(C(=O)N(Cc2ccc(Oc3ccc([N+](=O)[O-])cc3)cc2)C(C)=O)n(C)n1 | > 80
6 | CCc1cc(C(=O)N(Cc2ccc(Oc3ccc(C(F)(F)F)cc3)cc2)C(C)=O)n(C)n1 | > 80
7 | CCCC(=O)N(Cc1ccc(Oc2ccc(C#N)cc2)cc1)C(=O)c1cc(CC)nn1C | > 80
8 | CCC(=O)N(Cc1ccc(Oc2ccc(C#N)cc2)cc1)C(=O)c1cc(CC)nn1C | > 80
9 | CCc1cc(C(=O)N(Cc2ccc(Oc3ccc(C#N)cc3)cc2)C(=O)CC(C)C)n(C)n1 | > 80
10 | CCCc1cc(C(=O)N(Cc2ccc(Oc3ccc(C#N)cc3)cc2)C(C)=O)n(C)n1 | > 80
11 | CCC(C)c1cc(C(=O)N(Cc2ccc(Oc3ccc(C#N)cc3)cc2)C(C)=O)n(C)n1 (stereo unspecified) | > 80
12 | CCCCC(=O)N(Cc1ccc(Oc2ccc(C#N)cc2)cc1)C(=O)c1cc(CC)nn1C | > 80
13 | CCc1cc(C(=O)N(Cc2ccc(Oc3ccc(C#N)cc3)cc2)C(=O)C2CC2)n(C)n1 | > 80
14 | CCc1cc(C(=O)N(Cc2ccc(Oc3ccc(C#N)cc3)cc2)C(=O)C(C)CC)n(C)n1 (stereo unspecified) | > 80

Test system: Spodoptera litura
Test: Insecticidal activity Spodoptera litura third-instar larvae fed on compound pre-treated cabbage leaf disks assessed as insect mortality at 50 ppm measured 5 days after compound treatment
Format: functional
Settings: foliar

Row | SMILES | mortality at 50 ppm [%]
15 | COc1cc(C(=O)N(Cc2ccc(Oc3ccc(C#N)cc3)cc2)C(C)=O)n(C)n1 | > 80
16 | CCc1cc(C(=O)N(Cc2ccc(Oc3ccc(C#N)cc3)cc2)C(=O)C(C)(C)C)n(C)n1 | > 80
17 | CC(=O)N(Cc1ccc(Oc2ccc(C#N)cc2)cc1)C(=O)c1cc(C)nn1C | > 80
18 | CC(=O)N(Cc1ccc(Oc2ccc(C#N)cc2)cc1)C(=O)c1cc(C(C)C)nn1C | > 80
19 | CCOc1cc(C(=O)N(Cc2ccc(Oc3ccc(C#N)cc3)cc2)C(C)=O)n(C)n1 | > 80
20 | CC(=O)N(Cc1ccc(Oc2ccc(C#N)cc2)cc1)C(=O)c1cc(OC(C)C)nn1C | > 80
21 | CCc1cc(C(=O)NCc2ccc(Oc3ccc(C#N)cc3)cc2)n(C)n1 | > 80

Test system: Spodoptera litura
Test: Insecticidal activity Spodoptera litura third-instar larvae fed on compound pre-treated cabbage leaf disks assessed as insect mortality at 200 ppm measured 5 days after compound treatment
Format: functional
Settings: foliar

Row | SMILES | mortality at 200 ppm [%]
22 | CCc1cc(C(=O)N(Cc2ccc(Oc3ccc(F)cc3)cc2)C(C)=O)n(C)n1 | > 80
23 | CCc1cc(C(=O)N(Cc2ccc(Oc3ccc(C)cc3)cc2)C(C)=O)n(C)n1 | > 80
24 | CCCCc1cc(C(=O)N(Cc2ccc(Oc3ccc(C#N)cc3)cc2)C(C)=O)n(C)n1 | < 80
25 | CCc1cc(C(=O)N(Cc2ccc(Oc3ccccc3)cc2)C(C)=O)n(C)n1 | < 80
26 | CCCCOc1cc(C(=O)N(Cc2ccc(Oc3ccc(C#N)cc3)cc2)C(C)=O)n(C)n1 | > 80
27 | CCCCCc1cc(C(=O)N(Cc2ccc(Oc3ccc(C#N)cc3)cc2)C(C)=O)n(C)n1 | < 80
28 | CC(=O)N(Cc1ccc(Oc2ccc(C#N)cc2)cc1)C(=O)c1cc(CC(C)C)nn1C | > 80
29 | CC(=O)N(Cc1ccc(Oc2ccc(C#N)cc2)cc1)C(=O)c1cc(C(C)(C)C)nn1C | < 80
30 | CCc1cc(C(=O)N(Cc2ccc(Oc3ccc(OC)cc3)cc2)C(C)=O)n(C)n1 | < 80
31 | CCc1cc(C(=O)N(Cc2ccc(Oc3ccc(Cl)cc3)cc2)C(C)=O)n(C)n1 | > 80
